Here are results for four compounds from US8273780B2, “Polycyclic antagonists of lysophosphatidic acid receptors” (Amira Pharmaceuticals, Inc., priority 2009, dated 2012).

The subject of experiment [1] is pancreatic cancer cell lines. The following applies: in response to LPA and peritoneal fluid (ascites) from pancreatic cancer patients; cited from earlier work.
The test system of experiment [2] is UUO mice. The settings on record: in LPA1 (−/−) mice renal fibrosis was significantly attenuated; cited from earlier work.
In experiment [3] the test system is highly peritoneal metastatic pancreatic cancer cell line. The following applies: LPA-induced and ascites-induced; cited from earlier work.
For experiment [4], the system named is human A2058 melanoma cells. The experiment is described as follows: LPA1 chemotaxis assay. The experiment is classed as cell-based. The settings on record: 100 nM LPA, read-out: inhibition of LPA-driven chemotaxis IC50. The procedure: Chemotaxis of the A2058 human melanoma cells was measured using the Neuroprobe ChemoTx® System plates (8 μM pore size, 5.7 mm diameter sites). The filter sites were coated with 0.001% fibronectin (Sigma) in 20 mM Hepes, pH 7.4 and allowed to dry. A2058 cells were serum-starved for 24 hours, then harvested with Cell Stripper and resuspended in DMEM containing 0.1% fatty-acid-free bovine serum albumin (BSA) to a concentration of 1×10^6/ml. Cells were mixed with an equal volume of test compound (2×) in DMEM containing 0.1% fatty-acid-free BSA and incubated at 37° C. for 15 minutes. LPA (100 nM in DMEM containing 0.1% fatty-acid-free BSA) or vehicle was added to each well of the lower chamber and 50 μl of the cell suspension/test compound mix was applied to the upper portion of the ChemoTx plate. Plates were incubated at 37° C. for three hours and then the cells removed from the upper portion by rinsing with PBS and scraping. The filter was dried then stained with HEMA 3 Staining System (Fisher Scientific). The absorbance of the filter was read at 590 nm and IC50s were determined using Symyx Assay Explorer.

For experiment [5], the target named is T1, Human LPA3 (Homo sapiens, UniProt Q9UBY5).
T1 construct: The full-length cDNA fragment for human LPA3 was obtained by PCR from the vector; expressed in transfected cells; cDNA from the Missouri S&T cDNA Resource Center
T1 sequence (Q9UBY5 1-353): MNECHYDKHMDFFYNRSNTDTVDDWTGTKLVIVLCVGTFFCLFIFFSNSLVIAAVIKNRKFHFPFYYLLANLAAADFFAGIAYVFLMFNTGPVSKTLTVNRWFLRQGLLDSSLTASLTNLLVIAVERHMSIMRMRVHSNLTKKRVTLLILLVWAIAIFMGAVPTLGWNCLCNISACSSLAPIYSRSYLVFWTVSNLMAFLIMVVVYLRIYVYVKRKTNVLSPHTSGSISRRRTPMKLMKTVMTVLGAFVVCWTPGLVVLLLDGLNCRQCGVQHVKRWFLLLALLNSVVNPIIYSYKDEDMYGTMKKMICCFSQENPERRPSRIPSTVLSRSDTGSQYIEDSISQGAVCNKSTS
Nature of the experiment: LPA3 calcium flux assay. Type of experiment: cell-based. The following applies: CHO cells expressing human LPA3, 10 nM LPA; read-out: HLPA3 Ca Flux IC50. The procedure:
A vector containing the human LPA3 receptor cDNA was obtained from the Missouri S&T cDNA Resource Center (www.cdna.org). The full-length cDNA fragment for human LPA3 was obtained by PCR from the vector. The nucleotide sequence of the cloned human LPA3 was determined by sequencing and confirmed to be identical to the published human LPA3 sequence (NCBI accession number NM_012152). The cDNA was cloned into the pcDNA5/FRT expression plasmid and transfected in CHO cells using lipofectamine 2000 (Invitrogen Corp., USA). Clones stably expressing human LPA3 were selected using hygromycin and identified as cells that show Ca-influx in response to LPA.
(§1) Human LPA1 or LPA3 expressing CHO cells are seeded at 20,000-45,000 cells per well in a 96-well poly-D-lysine coated plate one or two days before the assay. Prior to the assay, the cells are washed once with PBS and then cultured in serum-free media overnight. On the day of the assay, a calcium indicator dye (Calcium 4, Molecular Devices) in assay buffer (HBSS with Ca^2+and Mg^2+ and containing 20 mM Hepes and 0.3% fatty-acid free human serum albumin) is added to each well and incubation continued for 1 hour at 37° C. 10 μl of test compounds in 2.5% DMSO are added to the cells and incubation continued at room temperature for 30 minutes. Cells are the stimulated by the addition of 10 nM LPA and intracellular Ca^2+ measured using the Flexstation 3 (Molecular Devices). IC50s are determined using Graphpad prism analysis of drug titration curves.

Experiment [6] addresses T2, Human LPA1 (Homo sapiens, UniProt Q92633).
T2 construct: the full-length cDNA for human LPA1 was obtained by PCR of the reverse transcription reaction; expressed in transfected cells
The experiment is described as follows: LPA1 calcium flux assay. The experiment is classed as cell-based. The following applies: CHO cells expressing human LPA1, 10 nM LPA; read-out: HLPA1 Ca Flux IC50. The procedure:
A 1.1 kb cDNA encoding the human LPA1 receptor was cloned from human lung. Human lung RNA (Clontech Laboratories, Inc. USA) was reverse transcribed using the RETROscript kit (Ambion, Inc.) and the full-length cDNA for human LPA1 was obtained by PCR of the reverse transcription reaction. The nucleotide sequence of the cloned human LPA1 was determined by sequencing and confirmed to be identical to the published human LPA1 sequence (An et al. Biochem. Biophys. Res. Commun. 231:619 (1997). The cDNA was cloned into the pcDNA5/FRT expression plasmid and transfected in CHO cells using lipofectamine 2000 (Invitrogen Corp., USA). Clones stably expressing human LPA1 were selected using hygromycin and identified as cells that show Ca-influx in response to LPA.
as §1
On the technique in general: Calcium flux is commonly read through the fluorescence of an indicator in the cells.

Where only a bound is given, the exact number is not on record here.

Broadly, the IC50 is the point on the concentration scale where inhibition reaches its midpoint.

T2 sequence (Q92633 whole entry): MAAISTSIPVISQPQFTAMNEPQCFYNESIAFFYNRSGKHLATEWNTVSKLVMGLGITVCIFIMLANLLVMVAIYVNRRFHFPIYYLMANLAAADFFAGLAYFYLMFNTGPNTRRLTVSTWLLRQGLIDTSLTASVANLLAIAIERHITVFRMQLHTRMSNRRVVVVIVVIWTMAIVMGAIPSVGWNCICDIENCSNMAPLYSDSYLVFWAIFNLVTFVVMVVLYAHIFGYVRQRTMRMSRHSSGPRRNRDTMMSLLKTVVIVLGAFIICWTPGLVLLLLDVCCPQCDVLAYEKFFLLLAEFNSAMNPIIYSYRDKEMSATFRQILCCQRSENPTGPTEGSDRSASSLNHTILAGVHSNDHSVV

For the compound `Cc1noc(-c2ccc(CSCCC(=O)O)cc2)c1NC(=O)OC(C)c1ccccc1Cl` (stereo not drawn) [Ki16425], the in vitro migration entry in experiment [1] is “effectively blocked”. In addition, the “development of renal fibrosis” value in experiment [2] was “closely resembled the LPA1 (−/−) mice”. Besides, the invasion activity result in experiment [3] is reported as “blocked”.
On to `Cc1noc(-c2ccc(-c3ccc(C4(c5nnn[nH]5)CC4)cc3)cc2)c1NC(=O)O[C@H](C)c1ccccc1` [Compound 39, (3-Methyl-5-{4′-[1-(1H-tetrazol-5-yl)-cyclopropyl]-biphenyl-4-yl}-isoxazol-4-yl)-carbamic acid (R)-1-phenyl-ethyl ester], for which the figures for the IC50 in experiment [4], in experiment [5] and in experiment [6] were less than 0.1 µM, 1 to 10 µM and less than 0.3 µM, respectively.
In the case of `Cc1noc(-c2ccc(-c3ccc(C4(C(=O)O)CC4)cc3)cc2)c1NC(=O)O[C@H](C)c1ccccc1Cl` [Compound 8, 1-(4′-{4-[(R)-1-(2-Chloro-phenyl)-ethoxycarbonylamino]-3-methyl-isoxazol-5-yl}-biphenyl-4-yl)-cyclopropanecarboxylic acid], the half-inhibitory concentration (IC50) is less than 0.1 µM in experiment [4], 0.3 to 1 µM in experiment [5] and less than 0.3 µM in experiment [6].
`Cc1noc(-c2ccc(-c3ccc(C4(C(=O)NS(=O)(=O)c5ccccc5)CC4)cc3)cc2)c1NC(=O)O[C@H](C)c1ccccc1` [Compound 36, {5-[4′-(1-Benzenesulfonylaminocarbonyl-cyclopropyl)-biphenyl-4-yl]-3-methyl-isoxazol-4-yl}-carbamic acid (R)-1-phenyl-ethyl ester]: the half-inhibitory concentration (IC50) in experiment [4] is less than 0.1 µM; in experiment [5] it was 1 to 10 µM; in experiment [6] it was less than 0.3 µM.
